These results are taken from the METLIN SMRT retention time set (Domingo-Almenara et al. 2019).

The data set in a line: gradient 5% acetonitrile 3 min, to 50% in 2 min, to 85% in 15 min, held 3 min, 100 µL/min. As to conditions: column: Zorbax Extend-C18 2.1 x 50 mm; eluents: water / acetonitrile, 0.1% formic acid. In outline: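 Retention times come from adduct peaks that were picked computationally and then checked by hand. The standards, pure and pooled in mixtures of ~100 molecules, were run on a Zorbax Extend-C18 column (2.1 × 50 mm, 1.8 μm) at 100 μL/min with water and acetonitrile, each with 0.1% formic acid. Detection was by quadrupole time-of-flight mass spectrometry in positive and negative ionization mode, with a dead volume of 40 μL and a dwell volume of 900 μL.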
Regarding `CCOc1ccc(NC(=O)Cn2c(C)nc3onc(C)c3c2=O)cc1`, the RP-LC retention time is 755 s.
For the compound `CCCCNC(=O)C1CCCN(C(=O)Nc2ccc(NC(=O)NC3CCCC3)cc2)C1` (centres undefined), the RP-LC retention time is 728 s.
In the case of `COc1ccc(Cl)cc1NC(=O)Cn1cccc1-c1nnc(C2CCC2)o1` it was 1040 s; in that of `Cc1cc(-c2c(C)sc(C)c2S(=O)(=O)N2CC=C(c3ccccc3)CC2)n[nH]1`, 1040 s.
For the compound `Cc1ccn2cc(C(=O)NC3CCN(Cc4ccccc4)CC3)nc2c1`, the RP-LC retention time worked out at 804 s.
With `Cc1cc(C)cc(NC(=O)C2CC(=O)N(CCc3c[nH]c4ccc(F)cc34)C2)c1` (centres undefined) the figure was 889 s; with `CCOCC(=O)N1CCCn2ccnc2C1C1CCCC1` (centres undefined), 587 s.
For `CN(C)S(=O)(=O)c1ccc(N)c([N+](=O)[O-])c1`, the RP-LC retention time is 773 s.
The compound `O=C(Nc1nc(-c2ccc(Br)cc2)cs1)c1cccc(-n2cnnc2)n1` returned an RP-LC retention time of 884 s.
With `CCN1CCN(Cc2nc(-c3ccc(N4CCSCC4)nc3)no2)CC1` the figure was 604 s; with `Cc1ccccc1CN1CCCN(c2ncccc2-c2nc(C3CC3)no2)CC1`, 711 s; with `CCS(=O)(=O)c1nc2ccc(NS(=O)(=O)c3cnc[nH]3)cc2s1`, 652 s.
In turn, `COc1cc(-c2oc3cc(O)ccc3c(=O)c2O)ccc1O` displayed an RP-LC retention time of 687 s.
In the case of `O=C(NCC1CCOCC1)c1ccc2ccccc2n1` it was 782 s; in that of `CCC(=O)N1CCc2cc(-c3ccc(C(=O)NCCc4c(C)noc4C)cc3)ccc21`, 750 s.
`CC1(C)CC(=O)c2cn(-c3ccc(F)cc3)c(=O)c(C(=O)N3CCN(c4ccccn4)CC3)c2C1` showed an RP-LC retention time of 636 s.
For the compound `O=C(c1cn2cc(Cl)ccc2n1)N1CCN(c2ccccc2)CC1`, the RP-LC retention time was found to be 804 s.
In turn, `Cc1cc(NC(=O)Cn2ccn3nc(-c4ccc(F)cc4)c(CO)c3c2=O)no1` had an RP-LC retention time of 727 s.
In turn, `CC1(C)[C@@H]2CC[C@@]1(C(=O)O)C(=O)C2` had an RP-LC retention time of 717 s.
Compound `Cc1ccc(-c2ccc(=O)n(Cc3nc(-c4cccs4)no3)n2)cc1` showed an RP-LC retention time of 990 s.
With `CCC1CN(C(=O)N2CCC(C(=O)NCCN3CCCC3)CC2)c2cc(C)ccc2O1` (centres undefined) the figure was 649 s; with `CCOC(=O)N1CCN(c2nc(F)c3c(c2F)S(=O)(=O)CCN3C2CCCCC2)CC1`, 1170 s; with `O=C(Nc1cc(F)ccc1F)c1cc2sccc2n1Cc1ccc(F)cc1`, 1200 s.
Turning to `CS(=O)(=O)Nc1ccc(C2(C(=O)NCc3cc(F)cc(F)c3)CCCCC2)cc1`, the RP-LC retention time turned out to be 916 s.
With `CN1C(=O)c2cccnc2Sc2cc(NC(=O)c3ccccc3Br)ccc21` the figure was 785 s.
`O=[N+]([O-])c1cnc(Sc2ccncn2)s1` showed an RP-LC retention time of 843 s.
With `CCOC(=O)c1noc2ncnc(Nc3ccc(C)c(C)c3)c12` the figure was 1070 s.
With `O=C(C1CCCN(c2nn3c(=O)c4c(nc3s2)CCCC4)C1)N1CCC2(CC1)OCCO2` (centres undefined) the figure was 674 s.
With `Cc1c(Cl)cccc1Nc1c(-c2ccc(Cl)cc2)nc2ncccn12` the figure was 992 s.
For the compound `Cc1ccc(-c2ccc(N3CCCC(C(=O)NCc4ccc(C(C)C)cc4)C3)nn2)cc1` (centres undefined), the RP-LC retention time was 889 s.
Consider `CCOc1ccc(C2c3[nH]c4ccccc4c3CCN2C(=O)c2ccncc2)cc1` (centres undefined), for which the RP-LC retention time amounted to 948 s.
On to `Cc1nc(-c2noc(-c3ccc(F)cc3)n2)cn1CC(=O)Nc1ccc(Cl)cc1`, for which the RP-LC retention time is 922 s.
For `Cc1[nH]c(/C=C2\C(=O)Nc3ccc(S(=O)(=O)Cc4c(Cl)cccc4Cl)cc32)c(C)c1C(=O)N1CCC[C@@H]1CN1CCCC1`, the RP-LC retention time turned out to be 787 s.
In the case of `CCNC(=O)c1nc(C(=O)NCCc2ccc(Cl)cc2)cs1` it was 842 s; in that of `Cc1ccccc1Cc1nc(C2CC(=O)N(c3ccc(F)c(Cl)c3)C2)no1` (centres undefined), 1090 s; in that of `CN(CCc1ccccn1)C(=O)C1CCN(c2cn[nH]c(=O)c2)CC1`, 536 s.
`CCC(C(=O)NCCCN1CCN(CC)CC1)n1c2ccccc2c2cnn(C)c(=O)c21` (centres undefined) came in with an RP-LC retention time of 594 s.
In the case of `CC1(C)CC(=O)c2cn(-c3ccccc3)c(=O)c(C(=O)N3CCN(C4CCCCC4)CC3)c2C1` it was 586 s; in that of `CCc1ccc(N2CC(c3noc(-c4cccc(Cl)c4)n3)CC2=O)cc1` (centres undefined), 1200 s.
With `COc1ccccc1-c1noc(Cn2c(=O)n(Cc3ccc(C)cc3)c(=O)c3sccc32)n1` the figure was 1100 s; with `COc1ccc2c(c1)c(CN1CC[C@H](CO)[C@H](N(C)C)C1)cn2C(C)C`, 591 s; with `CN(C)C(=O)c1cc2cnc(Nc3ccc(N4CCNCC4)cn3)nc2n1C1CCCC1`, 630 s.
In the case of `COc1cc(C2OC(c3ccc(Br)cc3)=NN2C(C)=O)ccc1OC(C)=O` (centres undefined) it was 1000 s; in that of `O=C1CC(c2noc(-c3cc(F)ccc3F)n2)CN1c1ccc(Cl)cc1` (centres undefined), 1020 s; in that of `O=C(c1ccc(-c2ccc3c(c2)CCN3S(=O)(=O)c2cccc(F)c2)cc1)N1CCOCC1`, 937 s.
With `Cc1ccc(S(=O)(=O)NNC(=O)C23CCC(CC2)C3)cc1`, the RP-LC retention time was determined as 873 s.
With `O=C(CCC1CCCC1)Nc1c2c(nn1-c1cccc(Cl)c1)CS(=O)C2` (centres undefined) the figure was 746 s.
With `CN1C(=O)NC(c2ccc(Cl)cc2)C2=C1CN(c1ccc(C(=O)O)cc1)C2=O` (centres undefined) the figure was 691 s; with `CCOC(=O)c1c(C)c(CCC(=O)NCc2ccc3c(c2)OCO3)c(C)n1C`, 865 s.
For `O=S(=O)(c1cc(-c2nnc(C3CC3)o2)co1)N1CCCCC1`, the RP-LC retention time came to 839 s.
In the case of `CC12CC(NC(=O)N1c1cccc(C(=O)O)c1)c1ccccc1O2` (centres undefined) it was 683 s; in that of `O=C1COc2ccc(S(=O)(=O)N3CCC(C(=O)Nc4ccc(C(F)(F)F)cc4)CC3)cc2N1`, 803 s; in that of `O=C(CC1CCCCC1)N1CCN(c2ccc(=O)n(-c3ccc(F)cc3)n2)CC1`, 901 s.
For the compound `Cc1ccc(NC(=O)Cn2c(=O)cc(-c3nc(C)no3)c3ccccc32)c(C)c1`, the RP-LC retention time was found to be 972 s.
The compound `CC(=O)c1ccc(S(=O)(=O)N(Cc2cccs2)Cc2cccn2C)cc1` yielded an RP-LC retention time of 983 s.
In turn, `Cn1nc(N2CCC(NC(=O)CCC3CCCC3)C2)ccc1=O` (centres undefined) showed an RP-LC retention time of 716 s.
With `COCCN1C(=O)CCc2cc(NS(=O)(=O)c3ccc(C)cc3C)ccc21` the figure was 816 s; with `Cc1ccc(C2Cn3nnc(-c4nc(-c5ccsc5)no4)c3CO2)c(C)c1` (centres undefined), 1220 s.
With `COc1ccc(OC)c(S(=O)(=O)N2CCc3nc(-c4ccccc4)[nH]c3C2)c1` the figure was 536 s.
In the case of `Cc1ccc(Nc2nc(NCc3cccnc3)nc3[nH]ncc23)cc1` it was 540 s; in that of `CNC(=O)N1CCCC(Cn2cnc3cccnc32)C1` (centres undefined), 574 s; in that of `O=C(NC1CCCCC1)N1CCc2nc(-c3ccc(Cl)cc3)ncc2C1`, 1050 s.
The compound `COC(=O)c1cc(S(=O)(=O)N2CCCC2C(=O)N2CCN(c3cccc(Cl)c3)CC2)cn1C` (centres undefined) gave an RP-LC retention time of 929 s.
The compound `CO[C@H]1C(=O)N(C2CCN(S(=O)(=O)C(C)C)CC2)[C@H]1c1ccncc1` showed an RP-LC retention time of 569 s.
In the case of `COc1ccc(N2CCN(C(c3cccs3)C(C)NC(=O)C(=O)N3CCCC3)CC2)cc1` (centres undefined) it was 670 s.
As to `CS(=O)(=O)N1CCC(C(=O)NCC2(CO)CC2)CC1`, the RP-LC retention time is 536 s.
The compound `O=C(O)C1CCN(c2nc3ccc(-c4ccccc4F)nc3s2)CC1` registered an RP-LC retention time of 869 s.
`Cc1ccc(CS(=O)(=O)N2CCC(c3cc(N)on3)CC2)cc1C` yielded an RP-LC retention time of 826 s.
With `Cc1ncc2c(n1)CCN(C(=O)c1ccc(Br)cc1)C2` the figure was 675 s; with `CCC(C(=O)NCc1ccccc1)n1cnc2nc3c(cc2c1=O)CCCC3` (centres undefined), 774 s.
In the case of `O=C(NCc1ccncc1)C1CCCN(c2nc3ccsc3c(=O)n2Cc2ccc(F)cc2)C1` (centres undefined) it was 630 s; in that of `CCC(C(=O)N1CCN(c2cc(C)n3cnnc3n2)CC1)c1ccccc1` (centres undefined), 864 s; in that of `CCN(CC)C(=O)c1sc2ncn(CC(=O)N3CCCCC3C)c(=O)c2c1C` (centres undefined), 752 s.
In the case of `CC1(C(=O)NCc2ccc(F)cc2)CCCN(C(=O)Nc2cccc(Br)c2)C1` (centres undefined) it was 1030 s; in that of `Cc1ncn(CC(=O)Nc2cc(F)ccc2F)c(=O)c1C`, 658 s; in that of `COc1cc(-c2nnc(-c3ccc(C)c(S(=O)(=O)N4CCCC4)c3)o2)cc(OC)c1OC`, 986 s.
For `COC(=O)c1ccc2c(=O)n(-c3cccc(OC)c3)c(N3CCCCCC3)nc2c1`, the RP-LC retention time came to 1210 s.
With `CCc1cc(=O)n(CC(=O)Nc2ccc(C)c(C)c2)c(N2CCOCC2)n1` the figure was 798 s; with `O=C(Cc1ccsc1)NCCC1CCN(C(=O)Nc2ccccc2)CC1`, 792 s.
